# Where “and” joins values, the source holds several entries; their conditions need not be identical. Identical values can stand only once. Like-named read-outs stand apart in the source and are kept apart here.
# Assays:
# IL-4 = biological target: T1, IL-4 (Homo sapiens, UniProt P05112); experiment: HEK-Blue IL-4/IL-13 reporter assay, IL-4 inhibition; format: cell-based; details: for % Inhibition / inhibition at 10 µM: 10 μM, IL-4, HEK Blue IL-4/IL-13 reporter assay; for EC50: HEK Blue IL-4/IL-13 reporter assay, read-out: EC50; for inhibition at 10 µM: HEK-Blue
# T1 construct: purchased Acros Biosystems IL4-H4218; host or cells: HEK-293
# T1 sequence (P05112 25-153): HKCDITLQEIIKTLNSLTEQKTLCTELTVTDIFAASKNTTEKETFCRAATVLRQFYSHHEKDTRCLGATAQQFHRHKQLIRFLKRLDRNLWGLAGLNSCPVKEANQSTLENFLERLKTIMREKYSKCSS
# Experimental: HEK-Blue IL-4/IL-13 Inhibition assay. HEK-Blue IL-4/IL-13 reporter cell lines were purchased from Invivogen and cultured in DMEM with 10% Heat Inactivated Fetal Bovine Serum (FBS), 100 U/ml-100 μg/ml Pen-Strep, 10 μg/ml blasticidin, 100 μg/ml Normocin and 100 μg/ml Zeocin. Cells were tested for secreted embryonic alkaline phosphatase (SEAP) production induced by IL-4 alone prior to small molecule screening.
# 22.5 μl of small molecule in DMEM 4% DMSO was added to 22.5 μl of 1 ng/ml IL-4 in DMEM in a non-binding 96-well reaction plate for 30 minutes at room temperature. The reaction plate was further incubated for 30-60 min at 37° C. HEK-Blue IL-4/IL-13 reporter cell line was used between passages 11-17. […] Measurements were done in triplicate. The plate was incubated for ˜22-24 hours at 37° C./5% CO2. Quanti-Blue dye was prepared as per the manufacturer's recommendation and 160 μl was dispensed in each well of a 96-well plate (avoid edges to avoid evaporation), 40 μl of cell supernatant was added to the same plate and incubated for 3 hours at 37° C./5% CO2. Optical density was then measured at 650 nm using Molecular Devices SpectraMax M5 Microplate reader. Data was analyzed and plotted using GraphPad Prism 9.2.0.
# [1] = Mouse hepatic microsome stability; format: in vitro ADME; details: mouse hepatic microsomes
Structure (SMILES),inhibition at 10 µM (IL-4; read-out: % Inhibition) [%],inhibition at 10 µM (IL-4) [%],also measured
"COc1ccc(C2=NC(=N)C(C#N)C(c3ccc(O)c(O)c3)=C2)cc1 (centres unmarked) [Compound 6, 4-(3,4-dihydroxyphenyl)-2-imino-6-(4-methoxyphenyl)-2,3-dihydropyridine-3-carbonitrile]",–,–,"% Inhibition (IL-4): 51.7 ± 5.05%; EC50 (IL-4; dose response, IL-4 inhibition): 3020 ± 610 nM"
"N#CC1C(=O)N=C(c2ccc(-c3ccccc3)cc2)C=C1c1ccc(O)c(O)c1 (centres unmarked) [Compound 31, 6-([1,1′-biphenyl]-4-yl)-4-(3,4-dihydroxyphenyl)-2-oxo-2,3-dihydropyridine-3-carbonitrile]",68.7 ± 9.84,–,–
"N#Cc1c(-c2ccc(O)c(O)c2)cc(-c2ccc(-n3ccnc3)cc2)nc1N [Compound 16, 6-(4-(1H-imidazol-1-yl)phenyl)-2-amino-4-(3,4-dihydroxyphenyl)nicotinonitrile]",–,–,% Inhibition (IL-4): No inhibition
"N#Cc1c(-c2ccc(O)c(C(=O)O)c2)cc(-c2ccc(F)cc2)[nH]c1=N [Compound 51, 5-(3-cyano-6-(4-fluorophenyl)-2-imino-1,2-dihydropyridin-4-yl)-2-hydroxybenzoic acid]",54.6 ± 11.6,–,–
"CN(C)c1ccc(-c2cc(-c3ccc(O)c(O)c3)c(C#N)c(N)n2)cc1 [Compound 17, 2-amino-4-(3,4-dihydroxyphenyl)-6-(4-(dimethylamino)phenyl)nicotinonitrile]",22.9 ± 1.48,–,–
"N#Cc1c(-c2ccccc2)cc(-c2ccc(F)cc2)[nH]c1=O [Compound 35, 6-(4-fluorophenyl)-2-oxo-4-phenyl-1,2-dihydropyridine-3-carbonitrile]",27.6 ± 25.1,–,–
"Cc1ccc(-c2cc(-c3ccc(F)cc3)[nH]c(=O)c2C#N)o1 [Compound 37, 6(4-fluorophenyl)-4-(5-methylfuran-2-yl)-2-oxo-1,2-dihydropyridine-3-carbonitrile]",0.48 ± 17.1,–,–
"N#Cc1c(-c2ccc(O)c(O)c2)cc(-c2ccc(-c3ccccc3)cc2)[nH]c1=N [Compound 10, 6-([1,1′-biphenyl]-4-yl)-4-(3,4-dihydroxyphenyl)-2-imino-1,2-dihydropyridine-3-carbonitrile]",4.73 ± 4.58,–,–
"N#Cc1c(-c2ccc(O)c(Br)c2)cc(-c2ccc(F)cc2)[nH]c1=N [Compound 52, 4-(3-bromo-4-hydroxyphenyl)-6(4-fluorophenyl)-2-imino-1,2-dihydropyridine-3-carbonitrile]",–,58.8 ± 16.5,–
"N#Cc1c(-c2ccccc2O)cc(-c2ccc(F)cc2)nc1O [Compound 39, 6-(4-fluorophenyl)-2-hydroxy-4-(2-hydroxyphenyl)nicotinonitrile]",–,100,"EC50 (IL-4; dose response, IL-4 inhibition): 1750 nM"
"N#Cc1c(-c2ccc(O)c(O)c2)cc(-c2cccnc2)[nH]c1=N [Compound 7, 4-(3,4-dihydroxyphenyl)-6-imino-1,6-dihydro-[2,3′-bipyridine]-5-carbonitrile]",94.3,–,"% Inhibition (IL-4): 84.3 ± 1.11%; EC50 (IL-4; dose response, IL-4 inhibition): 2020 ± 970 nM"
"N#Cc1c(-c2ccc(O)c(O)c2)cc(-c2cccc(F)c2)nc1N [Compound 1, 2-amino-4-(3A-dihydroxyphenyl)-6-(3-fluorophenyl)nicotinonitrile]",–,–,% Inhibition (IL-4): No inhibition
"N#Cc1c(-c2ccc(O)cc2)cc(-c2ccc(F)cc2)[nH]c1=O [Compound 41, 6(4-fluorophenyl)-4-(4-hydroxyphenyl)-2-oxo-1,2-dihydropyridine-3-carbonitrile]",–,60.7 ± 10.3,–
"Cc1c(-c2ccc(F)cc2)[nH]c(=N)c(C#N)c1-c1ccc(O)c(O)c1 [Compound 20, 4-(3,4-dihydroxyphenyl)-6-(4-fluorophenyl)-2-imino-5-methyl-1,2-dihydropyridine-3-carbonitrile]",97.7,–,"potency compared with Nico-52 (in words) (IL-4; dose response, IL-4 inhibition): less potency than Nico-52; EC50 (IL-4; dose response, IL-4 inhibition): 2690 ± 570 nM"
"Cc1ccc(-c2cc(-c3ccc(O)c(O)c3)c(C#N)c(=N)[nH]2)cc1 [Compound 5, 4-(3,4-dihydroxyphenyl)-2-imino-6-(p-tolyl)-1,2-dihydropyridine-3-carbonitrile]",–,> 80,"% Inhibition (IL-4): 62.7 ± 4.30% and 82.7 ± 4.30%; EC50 (IL-4; dose response, IL-4 inhibition): 1290 ± 470 nM"
"N#Cc1c(-c2ccccc2O)cc(-c2ccc(F)cc2)nc1N [Compound 47, 2-amino-6-(4-fluorophenyl)-4-(2-hydroxyphenyl)nicotinonitrile]",98.8 ± 1.54,–,"EC50 (IL-4; dose response, IL-4 inhibition): 3400 nM and 3450 nM"
"Cc1ccc(-c2cc(-c3ccc(F)cc3)[nH]c(=N)c2C#N)o1 [Compound 44, 6-(4-fluorophenyl)-2-imino-4-(5-methylfuran-2-yl)-1,2-dihydropyridine-3-carbonitrile]",33.9 ± 21.4,–,–
"N#Cc1c(-c2ccc(O)c(O)c2)cc(C23CC(C2)C3)nc1N [1A/54, 6-(bicyclo[1.1.1]pentan-1-yl)-4-(3,4-dihydroxyphenyl)-2-imino-2,3-dihydropyridine-3-carbonitrile]",86.1,–,Mouse hepatic microsome stability (% remaining after 1 hour) [1]: 68.3%
"Cc1ccc(-c2cc(-c3ccc(F)cc3)[nH]c(=N)c2C#N)s1 [Compound 45, 6-(4-fluorophenyl)-2-imino-4-(5-methylthiophen-2-yl)-1,2-dihydropyridine-3-carbonitrile]",37.5 ± 19.9,–,–
"N#Cc1c(-c2cccc(O)c2)cc(-c2ccc(F)cc2)[nH]c1=O [Compound 40, 6-(4-fluorophenyl)-4-(3-hydroxyphenyl)-2-oxo-1,2-dihydropyridine-3-carbonitrile]",–,64.3 ± 12.3,–
"COc1ccc(-c2cc(-c3ccc(F)cc3)[nH]c(=N)c2C#N)cc1O [Compound 49, 6-(4-fluorophenyl)-4-(3-hydroxy-4-methoxyphenyl)-2-imino-1,2-dihydropyridine-3-carbonitrile]",–,82.2 ± 7.2,"EC50 (IL-4; dose response, IL-4 inhibition): 4020 ± 1850 nM"
"N#Cc1c(-c2ccc(O)c(C(=O)O)c2)cc(-c2ccc(N)cc2)nc1N [Compound 33, 5-(2-amino-6-(4-aminophenyl)-3-cyanopyridin-4-yl)-2-hydroxybenzoic acid]",–,6.63,–
"COc1cc(-c2cc(-c3ccc(F)cc3)[nH]c(=O)c2C#N)ccc1O [Compound 42, 6(4-fluorophenyl)-4-(4-hydroxy-3-methoxyphenyl)-2-oxo-1,2-dihydropyridine-3-carbonitrile]",–,67.6 ± 4.88,–
"N#Cc1c(-c2ccc(O)c(O)c2)cc(-c2ccc3ccccc3c2)[nH]c1=N [Compound 11, 4-(3,4-dihydroxyphenyl)-2-imino-6-(naphthalen-2-yl)-1,2-dihydropyridine-3-carbonitrile]",–,54.7 ± 8.42,–

# From patent US20250313530A1, “SMALL MOLECULE INHIBITORS OF INTERLEUKIN-4 AND USES THEREOF” (Trustees of Boston University, priority 2024, published 2025)
